{"source": "patent US10087436B2", "about": "“Electrophysiologically mature cardiomyocytes and methods for making same” (The Regents of the University of California, priority 2014, dated 2018)", "system": "Ad-Kir2.1-silenced ventricular hESC-CMs", "assay": "Addition of the IK1 blocker Ba2+ to Ad-Kir2.1-silenced ventricular hESC-CMs (patch-clamp)", "format": "cell-based, human", "details": "200 μM Ba2+", "procedure": "HESC- and hiPSC-CMs were dissociated into single cells with 1 mg/ml collagenase II and plated on 0.1% gelatin-coated glass coverslips. Electrophysiological experiments were performed using whole-cell patch-clamp technique with an Axopatch 200B amplifier and the pClamp9.2 software (Axon Instruments Inc., Foster City, Calif.). Pipette solution was consisted of (mM): 110 K^+ aspartate, 20 KCl, 1 MgCl2, 0.1 Na-GTP, 5 Mg-ATP, 5 Na2-phospocreatine, 1 EGTA and 10 HEPES, with pH of 7.3. The external Tyrode's solution consisted of (mM): 140 NaCl, 5 KCl, 1 CaCl2, 1 MgCl2, 10 glucose, and 10 HEPES with pH of 7.4. Voltage- and current-clamp recordings were performed at 37° C. within 24 to 48 hours after adenovirus transduction. ESC-CMs were categorized into pacemaker, atrial or ventricular phenotypes based on the maximum diastolic potential (MDP), maximum rate of rise of the AP and AP duration (APD). […] Atrial cells with a triangular AP profile have a faster rate of rise than pacemaker cells, more hyperpolarized MDP or resting membrane potential (RMP), and intermediate APD. […] Different protocols as given in insets were employed to elicit the corresponding currents. […] All blockers were purchased from Sigma.", "data": [{"smiles": "[Ba+2]", "note": "[Ba^2+]", "values": [{"measurement": "firing phenotype upon addition of Ba2+", "result": "spontaneously fired APs"}]}]}
